Our source for the TGI values is PubChem BioAssay (NCI).

Among the test systems are BT-549 breast; UO-31 renal; SN12C renal; HOP-62 NSCLC; A498 renal; SNB-75 CNS; RXF 393 renal; OVCAR-8 ovarian; IGROV1 ovarian; A549 NSCLC; SK-MEL-2 melanoma.
Common to all, as to test: NCI anticancer screen, dose series, 48 h

Each structure is given as a SMILES string.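 Values below derive from 48-hour exposures of cells grown in 96-well plates, with endpoints linearly interpolated between the two concentrations bracketing the appropriate inhibition level. The concentration for full growth arrest is given as TGI.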

For the molecule `COc1cc([C@H]2Oc3c(OC)cc(CCCO)cc3[C@@H]2CO)ccc1O`, the TGI in the test with BT-549 breast, with UO-31 renal, in the test with SN12C renal, in the test on HOP-62 NSCLC, in the test on A498 renal and in the test with SNB-75 CNS was greater than 100 µM throughout. In addition, the TGI with RXF 393 renal, with OVCAR-8 ovarian, in the test with IGROV1 ovarian, in the test on A549 NSCLC and with SK-MEL-2 melanoma was greater than 100 µM each time.

Consider `N#CC12C(=O)N3C(=NC(c4ccccc4)NC3c3ccccc3)C1(C#N)C(c1ccccc1)NC1=C2CCCC1` (stereo not given), for which the TGI with BT-549 breast, in the test with UO-31 renal, with SN12C renal, in the test on HOP-62 NSCLC, with A498 renal and in the test on SNB-75 CNS was greater than 100 µM in each case. The TGI with RXF 393 renal, in the test with OVCAR-8 ovarian, in the test with IGROV1 ovarian, with A549 NSCLC and in the test on SK-MEL-2 melanoma was greater than 100 µM throughout.

For the molecule `CSCCCNC(=O)c1csc(-c2csc(CCNC(=O)CNC(=O)CNC(=O)CNC(=O)OC(C)(C)C)n2)n1`, the TGI in the test on BT-549 breast, with UO-31 renal, in the test on SN12C renal, with HOP-62 NSCLC, with A498 renal and with SNB-75 CNS was greater than 100 µM throughout. In addition, the TGI in the test with RXF 393 renal, with OVCAR-8 ovarian, with IGROV1 ovarian, with A549 NSCLC and in the test with SK-MEL-2 melanoma was greater than 100 µM in each case.

With `COc1cc(/C=C2\Cc3cc(OC)c(OC)cc3C2=O)cc(OC)c1`, the TGI with BT-549 breast was 69.3 µM; with UO-31 renal, greater than 100 µM; in the test on SN12C renal, greater than 100 µM; in the test on HOP-62 NSCLC it was greater than 80.1 µM; in the test with A498 renal, greater than 100 µM; in the test with SNB-75 CNS it was greater than 100 µM. The TGI was 57.1 µM in the test on RXF 393 renal; greater than 67.5 µM with OVCAR-8 ovarian; greater than 100 µM with IGROV1 ovarian; greater than 100 µM with A549 NSCLC; greater than 100 µM in the test with SK-MEL-2 melanoma.

On to `CCOC(=O)C(NC(=O)CC)(Nc1ccc(S(=O)(=O)Nc2nc(C)cc(C)n2)cc1)C(F)(F)F` (stereo not given), for which the TGI in the test with BT-549 breast, in the test with UO-31 renal, in the test with SN12C renal, in the test on HOP-62 NSCLC, with A498 renal and in the test with SNB-75 CNS was greater than 100 µM each time. Besides, the TGI with RXF 393 renal, with OVCAR-8 ovarian, in the test on IGROV1 ovarian, with A549 NSCLC and with SK-MEL-2 melanoma was greater than 100 µM each time.

Take `Cc1ccnc(NC(=S)Nc2cccc(Cl)c2)c1`: the TGI in the test with BT-549 breast, in the test with UO-31 renal, with SN12C renal, in the test with HOP-62 NSCLC, with A498 renal and in the test with SNB-75 CNS was greater than 100 µM throughout. In addition, the TGI in the test with RXF 393 renal, in the test on OVCAR-8 ovarian, with IGROV1 ovarian, in the test on A549 NSCLC and with SK-MEL-2 melanoma was greater than 100 µM throughout.

For `Cc1ccc(N=C2SC(c3ccc(C)cc3)(c3ccc(C)cc3)c3ccccc32)cc1`, the TGI in the test with BT-549 breast, in the test with UO-31 renal, in the test on SN12C renal, in the test with HOP-62 NSCLC, in the test on A498 renal and in the test with SNB-75 CNS was greater than 100 µM in each case. Besides, the TGI in the test on RXF 393 renal, in the test on OVCAR-8 ovarian, with IGROV1 ovarian, in the test with A549 NSCLC and in the test with SK-MEL-2 melanoma was greater than 100 µM each time.

Turning to `CCOC(=O)c1c(N2CCOCC2)[nH]c(=O)c(C(c2cccs2)c2c(O)c(C(=O)OCC)c(N3CCOCC3)[nH]c2=O)c1O`, the TGI in the test with BT-549 breast, in the test on UO-31 renal, in the test on SN12C renal, with HOP-62 NSCLC, in the test with A498 renal and in the test with SNB-75 CNS was greater than 100 µM each time. In addition, the TGI in the test on RXF 393 renal, with OVCAR-8 ovarian, with A549 NSCLC and in the test on SK-MEL-2 melanoma was greater than 100 µM each time.

For the molecule `CCCCCn1c(=O)c2c(=O)[nH][nH]c2c2ccccc21`, the TGI in the test on BT-549 breast, in the test with UO-31 renal, in the test on SN12C renal, in the test on HOP-62 NSCLC, in the test on A498 renal and in the test with SNB-75 CNS was greater than 100 µM each time. The TGI with RXF 393 renal, in the test with OVCAR-8 ovarian, with IGROV1 ovarian, with A549 NSCLC and in the test on SK-MEL-2 melanoma was greater than 100 µM each time.

Regarding `CC(NNC(=O)c1ccncc1)c1ccc(Cl)c(Cl)c1` (stereo not given), the TGI in the test on BT-549 breast, in the test on UO-31 renal, in the test on SN12C renal, in the test on HOP-62 NSCLC, with A498 renal and in the test with SNB-75 CNS was greater than 100 µM in each case. The TGI with RXF 393 renal, with OVCAR-8 ovarian, in the test with IGROV1 ovarian, with A549 NSCLC and in the test with SK-MEL-2 melanoma was greater than 100 µM throughout.

In the case of `O=C(N/N=C/c1ccc(Cl)cc1)c1cc(I)cc(I)c1O`, the TGI in the test with BT-549 breast, in the test with UO-31 renal, in the test with SN12C renal, with HOP-62 NSCLC, in the test with A498 renal and with SNB-75 CNS was greater than 100 µM in each case. The TGI with RXF 393 renal, in the test on OVCAR-8 ovarian, in the test with IGROV1 ovarian, in the test on A549 NSCLC and in the test with SK-MEL-2 melanoma was greater than 100 µM throughout.

Turning to `COC(=O)/C(=C\c1ccco1)P(=O)(OC)OC`, the TGI was greater than 100 µM in the test with BT-549 breast; greater than 100 µM with SN12C renal; 52.7 µM in the test on HOP-62 NSCLC; greater than 100 µM in the test on A498 renal; greater than 100 µM in the test on SNB-75 CNS; greater than 100 µM with RXF 393 renal. In addition, the TGI with OVCAR-8 ovarian is greater than 100 µM; in the test with IGROV1 ovarian, greater than 100 µM; in the test with A549 NSCLC it was greater than 100 µM; with SK-MEL-2 melanoma it was 83.4 µM.
